Measured values reported in patent US10993988B2, “Anthelmintic combinations and methods of use thereof” (BOEHRINGER INGELHEIM ANIMAL HEALTH USA INC., priority 2015, dated 2021).
Where two headings read alike, the source gives them in different places.

Experiments:
[1] = tested on: JYD-34 isolate of Dirofilaria immitis; assay: Efficacy of ivermectin and emodepside, separately and in combination, against induced Dirofilaria immitis infection in dogs (live worm counts at necropsy); settings: in vivo, po
MP3 strain of D. immitis = settings: cited from earlier work
[2] = normal prophylaxis regimens, recent reports

Molecule | Efficacy [1] | Efficacy against MP3 strain (MP3 strain of D. immitis; in vivo) | Efficacy against MP3 strain (MP3 strain of D. immitis; [2])
CC[C@H](C)[C@H]1O[C@]2(CC[C@@H]1C)C[C@@H]1C[C@@H](C/C=C(\C)[C@@H](O[C@H]3C[C@H](OC)[C@@H](O[C@H]4C[C@H](OC)[C@@H](O)[C@H](C)O4)[C@H](C)O3)[C@@H](C)/C=C/C=C3\CO[C@@H]4[C@H](O)C(C)=C[C@@H](C(=O)O1)[C@]34O)O2 [ivermectin oral solution, ivermectin] | Less than 50% | incomplete efficacy | 
CO[C@H]1C[C@H](O[C@@H]2/C(C)=C/C[C@@H]3C[C@@H](C[C@]4(CC[C@H](C)[C@@H](C5CCCCC5)O4)O3)OC(=O)[C@@H]3C=C(C)/C(=N/O)[C@H]4OC/C(=C\C=C\[C@@H]2C)[C@]43O)O[C@@H](C)[C@@H]1O [selamectin] |  |  | incomplete efficacy
milbemycin oxime |  |  | incomplete efficacy
